Earlier results on one compound are cited in paper PMC8711562 (Drug Design, Development and Therapy, 2021).

In this data set the test system is gastric pH. As to conditions: beagles.

Turning to `COc1ccc2[nH]c([S+]([O-])Cc3ncc(C)c(OC)c3C)nc2c1` (stereo not shown) [Omeprazole], the “gastric pH elevated to” value is reported as 6.
